Data reported in patent US7910692B2, “Immunogenic peptides and methods of use” (The United States of America as represented by the …, priority 2006, dated 2011).

Experiments:
HLA-A2 molecules = molecular target: T1, HLA-A2 molecules (Homo sapiens, UniProt P04439, D140Y/D185E/D98H/E176V/E277Q/G131W/G231S/I119V/I121R/I166T/I218V/L300P/L318F/N151K/N90K/P208A/P217A/Q86G/Q94H/R138H/R169H/T345S); assay: Peptide binding to HLA-A2: upregulation of HLA-A2 expression on T2 cells, flow cytometry; conditions: for T2 binding, mean fluorescence intensity: T2 cells; for binding to HLA-A2 compared with native peptides: all concentrations, 0 to 25 μg/ml (FIG. 1A)
T1 construct: expressed in transfected cells; host or cells: T2 cells (provided by Dr. Peter Cresswell)
Procedure: The primary amino acid sequence of human PAGE4 was analyzed for consensus motifs for novel HLA-A2 binding peptides. Two 10-mer peptides (P16-25 designated as P16 and P59-68 designated as P59) and one 9-mer peptide (P84-92 designated as P84) were identified and evaluated (Table 1). […] For this reason, five different analogues of native peptides were synthesized and were investigated for their binding ability to HLA-A2-positive T2 cells along with the native P16, P59 and P84 peptides. A MUC-1 peptide and a CEA HLA-A3 binding peptide (CAP-7) were used as a positive and negative control, respectively (Tsang et al., J Natl Cancer Inst 1995; 87:982-90).

T-A-P16 cells = assay: Cytokine production by T-A-P16 cells stimulated with native and agonist P16 peptides (FIG. 2); type: cell-based, human; conditions: vs native P16 or P16-2 peptide; 12.5 ul/ml; effector-to-APC 1:3; 24-hour supernatants (FIG. 2)
Procedure: FIG. 2 is a set for bar graphs illustrating the ability of autologous B cells pulsed with native and agonist P16 peptides to induce IFN-γ, Lymphotactin, Granzyme B, TNF-α and IL-2 production by T cell line derived from the native peptide (T-A-P16). T-A-P16 cells were used as effectors at in vitro stimulation (IVS-4). T cells were stimulated with irradiated autologous B cells pulsed with different PAGE4 analogues at a concentration of 12.5 ul/ml, and an effector-to-APC ratio of 1:3. Twenty-four-hour culture supernatants were collected and screened for the secretion of IFN-γ, Lymphotactin, Granzyme B, TNF-α and IL-2 using ELISA assay.
Detection of Cytokines: Supernatants of T cells stimulated for […] with peptide-pulsed autologous EBV-transformed B cells, in IL-2-free medium at various peptide concentrations, were screened for secretion of IFN-γ using an ELISA kit (BioSource International, Camarillo, Calif.) and lymphotactin using an ELISA assay (36). Granzyme B, TNF-α and IL-2 were determined by using a Cytokines and Chemokines-Multiplex Kit (Meso Scale Discovery, Geitherburg, Md.). The results were expressed in pg/ml.
Studies were then undertaken to examine the ability of the P16, P16-1, P16-2 peptides to activate the T-A-P16 cells, which were generated with the P16 native peptide. […] The P16-1 agonist was thus chosen for further study.

LNCaP cells = assay: Cold target inhibition assay; type: cell-based, human; conditions: peptide-pulsed (12.5 μg/ml) unlabeled T2 cells; LNCaP:T2 1:10; E:T 15:1 (FIG. 5A)
Procedure: For the results presented in FIG. 5A, ^111In labeled LNCaP cells and unlabeled T2 cells were used at a ratio of 1:10. T2 cells were incubated with or without P16-1 peptide (12.5 μg/ml) in serum-free medium for 2 hours at 37° C. prior to the addition of the T-A-P16-1 cells. For the results presented in FIG. 5B, anti-HLA-A2 antibody (10 μg/ml and 50 μg/ml) or 110 μg/ml of control IgG antibody were added to ^111In labeled LNCaP cells for 1 hour at 37° C. prior to the addition of the T-A-P16-1 cells. Results are expressed in percent specific lysis at effector-to-target ratio of 15:1. Bars=SD. Statistically significant (P<0.05, two tailed t test).
To confirm the specificity and HLA-A2 restriction of CTL cytolysis, LNCaP cells were used as target in a cold target inhibition assay. […] Moreover, to determine whether the lysis was HLA-A2 restricted, antibody blocking experiments were carried out.

T2 cells = assay: 111In release assay: lysis of peptide-pulsed T2 targets by PAGE4-specific T-cell lines; type: cell-based; conditions: for % lysis (±SD) by T-A-P16 / % lysis (±SD) by T-B-P16-1: 16-hour 111In release, peptide 12.5 μg/ml, IVS4
Procedure: Cytotoxic Assay: Cytotoxicity assays were used as described previously (Tsange et al., J Natl Cancer Inst 1995; 87:982-90). A 6-hour or 16-hour ^111In release assay was used to determine T-cell mediated killing. Target cells were labeled with ^111In oxine (Amersham Health, Silver Spring, Md.) for 20 min at room temperature, and used at 3×10^3 cells per well, in 96-well rounded-bottom culture plates. ^111In released was measured by gamma counting. Spontaneous release was determined by incubating the target cells with medium alone, and complete lysis by incubating the target cells with 2.5% Triton X-100. Specific lysis (%)=[(observed release−spontaneous release)/(complete release−spontaneous release)]×100.
To examine the ability of the P16 and P16-1 peptides to activate the PAGE4-specific T-cells, T-A-P16 cells were subsequently analyzed for the ability to lyse peptide-pulsed targets.

peptide-HLA-A2 complexes = molecular target: T2, peptide-HLA-A2 complexes (Homo sapiens, UniProt P04439, D140Y/D185E/D98H/E176V/E277Q/G131W/G231S/I119V/I121R/I166T/I218V/L300P/L318F/N151K/N90K/P208A/P217A/Q86G/Q94H/R138H/R169H/T345S); assay: Stability of peptide-HLA-A2 complexes on T2 cells after brefeldin A block; type: binding; conditions: 8-hour observation period; 12.5 μg/ml (FIG. 1B)
T2 construct: expressed in transfected cells; host or cells: T2 cells (provided by Dr. Peter Cresswell)
Procedure: FIGS. 1A and 1B are line graphs showing the binding of native PAGE4 peptides and their agonist peptides to HLA-A2 molecules. Peptides were analyzed for binding to T2 cell line as described in Example 1. For the results presented in FIG. 1A, peptides were used at concentrations of 0 to 25 μg/ml. P16 peptide (∘), P16-1 (●), P16-2 (▴), P84 (□) and P84-1 (▪), positive control (MUC-1 peptide) (+) and negative control (HLA-A3 binding peptide) (X). Results are expressed in mean fluorescence intensity (MFI). FIG. 1B presents a comparison of the stability of HLA-A2 peptide complexes of PAGE4 native and agonist peptides. T2 cells were incubated overnight with P16 peptide (∘), P16-1 (●), P16-2 (▴), P84 (□) and P84-1 (▪) peptides at a concentration of 12.5 μg/ml and then were washed free of unbound peptide and incubated with brefeldin A to block delivery of new class 1 molecules to the cell surface. At the indicated times, cells were stained for the presence of surface peptide-HLA-A2 complexes. Results are expressed in relative percentage of binding compared with 100% at time 0.
The analogues of P16 were designated P16-1 and P16-2, and the analogue of P84 was designated as P84-1. These peptides bound to HLA-A2 at higher levels than their native peptides. Studies were then conducted to examine the ability of these peptides to bind HLA-A2 at various concentrations. […] Studies were then undertaken to examine the stability of the peptide-MHC complex for the peptides P16, P84, P16-1, P16-2 and P84-1. Each peptide was incubated with T2 cells overnight, the unbound peptides were washed off, and the cells were then incubated with Brefeldin A to block delivery of new class I molecules to the cell surface. Cells were analyzed for the presence of peptide-HLA-A2 complexes at various time points.

T-B-P16-1 cells = assay: CD107a mobilization assay; type: cell-based, human; conditions: T-B-P16-1 cells with T2 cells pulsed with 12.5 μg/ml peptide; 5 hours (FIG. 3)
Procedure: The expression of CD107a on the cell surface of CD8+ T cells and correlation with cytotoxic activity by PAGE4-specific T-cell line (T-B-P16-1) against P16-1 or P16 pulsed T2 cells. 0.5×10^6 effector cells/ml were incubated (FIG. 3a) alone, (FIG. 3b) with T2 cells without peptide, (FIG. 3c) with T2 cells pulsed with 12.5 μg/ml of P16 peptide, or (FIG. 3d) with T2 cells pulsed with 12.5 μg/ml of P16-1 peptide. Results are expressed in % of CD107a positive and CD8 positive cells. Numbers of the upper right are % of specific lysis±SD.
CD107a mobilization assay: The CD107a mobilization assay was performed as previously described (Rubio et al., Nat Med 2003; 9:1377-82). […] Samples were then fixed and the expression of CD107a on the cell surface of CD8^+ T cells was analyzed by flow cytometry.
In order to determine CTL degranulation which is a requisite process of perforin-granzyme mediated killing by activated CD8+ T cells, CD107a mobilization to the cell surface of CD8+ T cells was examined following activation with P16 or P16-1 peptides in addition to CTL assays. T-B-P16-1 cells were incubated with P16 native or P16-1 agonist peptide-pulsed T2 cells for 5 hours in the presence of monensin and analyzed for CD107a mobilization by flow cytometric analysis (FIG. 3). […]

Substance: HLFGYSWYK [CAP-7 peptide, reference compound]
- T2 binding, mean fluorescence intensity (HLA-A2 molecules; peptide 25 μg/ml): 260 MFI

Substance: KTPPNPKHA (XXPPNPKHX; (16)..(16) Xaa can be Gln or Tyr; listed as Homo sapiens) [Peptide P84]
- binding of native peptides to HLA-A2 molecules in the T2 assay (HLA-A2 molecules; T2 assay): bound to HLA-A2 molecules
- T2 binding, mean fluorescence intensity (HLA-A2 molecules; peptide 25 μg/ml): 270 MFI
- T2 binding, fold increase as compared with the negative control (HLA-A2 molecules; peptide 25 μg/ml, vs CAP-7 negative control): 1.04 fold

Substance: P16-1: agonist analogue of P16; amino acids 16 to 25 of SEQ ID NO: 1, X1 glutamine, X2 leucine (QLAPDVVAFV; (16)..(16) Xaa can be Gln or Tyr; listed as Homo sapiens) [Peptide P16-1]
- IFN-γ, lymphotactin, Granzyme B, TNF-α and IL-2 production by T-A-P16 cells (T-A-P16 cells): higher levels
- decrease in CTL activity of T-A-P16-1 cells against labeled LNCaP cells (LNCaP cells): 79.6%
- % lysis (±SD) by T-A-P16 (T2 cells; effector T-A-P16, E:T 15:1): 16.7 (0.9) %
- % lysis (±SD) by T-A-P16 (T2 cells; effector T-A-P16, E:T 30:1): 20.4 (1.9) %
- lysis of peptide-pulsed T2 cells by T-A-P16 compared with P16-pulsed T2 cells (T2 cells; effector T-A-P16, two E:T ratios): higher
- % lysis (±SD) by T-B-P16-1 (T2 cells; effector T-B-P16-1, E:T 15:1): 25.8 (0.6) %
- % lysis (±SD) by T-B-P16-1 (T2 cells; effector T-B-P16-1, E:T 30:1): 34.7 (0.04) %
- lysis of peptide-pulsed T2 cells by T-B-P16-1 compared with P16-pulsed T2 cells (T2 cells; effector T-B-P16-1, two E:T ratios): to a greater extent
- stability of peptide-HLA-A2 complexes compared with native peptide complexes (peptide-HLA-A2 complexes): greater
- CD8+ T cells expressing surface CD107a compared with P16 native peptide (T-B-P16-1 cells): Higher number
- binding to HLA-A2 compared with native peptides (HLA-A2 molecules): higher levels

Substance: P84-1: analogue of P84; amino acids 84-92 of SEQ ID NO: 1, X6 tyrosine, X7 leucine, X8 valine (YLPPNPKHV; (16)..(16) Xaa can be Gln or Tyr; listed as Homo sapiens) [Peptide P84-1]
- stability of peptide-HLA-A2 complexes compared with native peptide complexes (peptide-HLA-A2 complexes): more stable
- binding to HLA-A2 compared with native peptides (HLA-A2 molecules): higher levels

Substance: P16-2: analogue of P16; amino acids 16 to 25 of SEQ ID NO: 1, X1 tyrosine, X2 leucine (YLAPDVVAFV; (16)..(16) Xaa can be Gln or Tyr; listed as Homo sapiens) [Peptide P16-2]
- stability of peptide-HLA-A2 complexes compared with native peptide complexes (peptide-HLA-A2 complexes): more stable
- binding to HLA-A2 compared with native peptides (HLA-A2 molecules): higher levels
